Source: patent US20240043407A1, “CRYSTALLINE FORM I OF MELANOCORTIN RECEPTOR AGONIST COMPOUND AND METHOD FOR PREPARING SAME” (LG CHEM, LTD., priority 2020, published 2024)

How the values were obtained:
Assay type in all cases: physicochemical
[1] = Dynamic vapor sorption (DVS) analysis
Protocol: DVS was measured using automated gravimetric vapor sorption analyzer equipped with Cahn D200 ultra-microbalance (DVS Intrinsic apparatus, Surface Measurement System Ltd., UK). First, a sample of 10-20 mg was put in a sample pan and hung on a hang-down wire, and measurement was started when the weight and humidity reached equilibrium. In one cycle, relative humidity was increased from 0% to 90% and then dropped back to 0%. Two cycles were carried out. The experiment was carried out in a way that the relative humidity was increased at 10% increment using a dm/dt method. The experiment was carried out at room temperature (25° C.)

[2] = Stability assessment by HPLC after storage; conditions: for HPLC content, Accelerated condition (40° C./75% RH): open state; for HPLC content, Accelerated condition (40° C./75% RH) / HPLC content, Harsh condition (80° C.): in % (unit assumed); for HPLC content, Harsh condition (80° C.): sealed state, oven 80° C.
Protocol: About 10-30 mg of the sample was stored for 4 weeks in an open state under the accelerated condition (40° C., 75% RH) or in a sealed state under the harsh condition in an oven at 80° C. [table]

[3] = Thermogravimetric analysis (TGA)
Protocol: The TGA was measured using Mettler Toledo TGA/DSC 1 module. About 4-8 mg of the sample is weighed and put into a 100 μL Al crucible (flat-bottomed aluminum crucibles). Then, TGA measurement is performed while the sample is heated from 30° C. to 350° C. at a rate of 10° C./min. During the measurement, nitrogen gas is supplied to the inside of the instrument at a rate of 80 mL/min to prevent the inflow of oxygen and other gases. Data collection and evaluation were performed using the software STARe.

- total weight gain observed between 0-90% RH ([1]; DVS, 25° C., 0-90% RH, two cycles): 0.2 % w/w
- physical change after DVS (XRPD pattern compared with initial compound) ([1]; XRPD after DVS analysis): no physical change occurred
- chemical stability ([2]; accelerated (40° C., 75% RH) and harsh (80° C.) condition, 4 weeks): showed chemical stability for 4 weeks
- decrease in the content until week 4 ([2]; accelerated condition (40° C., 75% RH) and closed state (harsh condition, 80° C.), until week 4): about 1.3%
- decrease in the content under the accelerated condition ([2]; accelerated condition, for 4 weeks): less than 1%
- HPLC content, Initial ([2]; initial, before storage): 97.8%
- HPLC content, Accelerated condition (40° C./75% RH) ([2]; Day 3): 97.51
- HPLC content, Accelerated condition (40° C./75% RH) ([2]; Week 1): 96.64
- HPLC content, Accelerated condition (40° C./75% RH) ([2]; Week 2): 97.73
- HPLC content, Accelerated condition (40° C./75% RH) ([2]; Week 4): 97.47
- HPLC content, Harsh condition (80° C.) ([2]; Day 3): 97.46
- HPLC content, Harsh condition (80° C.) ([2]; Week 1): 97.34
- HPLC content, Harsh condition (80° C.) ([2]; Week 2): 96.94
- HPLC content, Harsh condition (80° C.) ([2]; Week 4): 96.47
- temperature up to which thermally stable ([3]; TGA, error of ±5° C.): up to 270 °C
SMILES: CC(C)C(=O)N([C@H]1C[C@@H](C(=O)N2CCOCC2)N(C(=O)[C@@H]2CN(C(C)(C)C)C[C@H]2c2ccc(Cl)cc2)C1)[C@H]1CC[C@@H](C)CC1 [Example 1, N-((3S,5S)-1-((3S,4R)-1-(tert-butyl)-4-(4-chlorophenyl)pyrrolidine-3-carbonyl)-5-(morpholine-4-carbonyl)pyrrolidin-3-yl)-N-((1s,4R)-4-methylcyclohexyl)isobutyramide]
- weight loss in TGA before degradation ([3]; heated from 30° C. to 350° C. at 10° C./min): no weight loss was observed before degradation
